Legend:
[1] = 101 kPa, Liquid; for speed of sound: Single path-length method
[2] = xn = mol fraction of the nth substance listed; conditions: 101 kPa, Liquid, x2 = 0; for speed of sound: Single path-length method

c1ccccc1 [benzene]
[1]
Conditions | mass density [kg/m3] | speed of sound [m/s]
288.15 K | 884.183 | 1345.5
290.65 K | 881.521 | 1333.4
293.15 K | 878.856 | 1321.6
295.65 K | 876.19 | 1309.9
298.15 K | 873.52 | 1298.3
300.65 K | 870.847 | 1286.7
303.15 K | 868.172 | 1275.1
305.65 K | 865.49 | 1263.6
308.15 K | 862.805 | 1252.1
310.65 K | 860.118 | 1240.7
313.15 K | 857.425 | 1229.3
315.65 K | 854.73 | 1217.9
318.15 K | 852.032 | 1206.7
320.65 K | 849.331 | 1195.5
323.15 K | 846.641 | 1184.6

Cc1ccccc1 [toluene]
[1]
Conditions | mass density [kg/m3] | speed of sound [m/s]
288.15 K | 871.457 | 1347.5
290.65 K | 869.144 | 1336.3
293.15 K | 866.823 | 1325.3
295.65 K | 864.5 | 1314.3
298.15 K | 862.173 | 1303.4
300.65 K | 859.845 | 1292.6
303.15 K | 857.513 | 1281.9
305.65 K | 855.175 | 1271.2
308.15 K | 852.838 | 1260.5
310.65 K | 850.494 | 1249.8
313.15 K | 848.146 | 1239.2
315.65 K | 845.794 | 1228.6
318.15 K | 843.437 | 1218
320.65 K | 841.075 | 1207.3
323.15 K | 838.706 | 1196.6

CC(C)CC(C)(C)C [2,2,4-trimethylpentane] + COC(C)(C)C
[2]
Conditions | mass density [kg/m3] | speed of sound [m/s]
288.15 K | 695.948 | 1124.3
290.65 K | 693.91 | 1113.8
293.15 K | 691.861 | 1103.3
295.65 K | 689.809 | 1092.7
298.15 K | 687.749 | 1082.2
300.65 K | 685.687 | 1071.7
303.15 K | 683.618 | 1061.3
305.65 K | 681.542 | 1050.9
308.15 K | 679.459 | 1040.5
310.65 K | 677.373 | 1030.2
313.15 K | 675.278 | 1019.9
315.65 K | 673.177 | 1009.7
318.15 K | 671.069 | 999.53
320.65 K | 668.954 | 989.37
323.15 K | 666.832 | 979.25

— the NIST ThermoML archive (doi:10.1007/s10765-007-0223-x)
